The values below come from patent EP0730589B1, “ISOXAZOLINE COMPOUNDS USEFUL AS […] ANTAGONISTS” (THE DU PONT MERCK PHARMACEUTICAL COMPANY, priority 1993, dated 1995).

In the assay the test system is platelet aggregation. The assay is described as follows: Platelet aggregation assay (platelet rich plasma, PRP). As to conditions: inhibition of agonist-induced aggregation in human platelet rich plasma (PRP); ester prodrugs preincubated with porcine liver esterase, ADP-induced. It is filed as cell-based. Here is the method: Platelet Aggregation Assay: Venous blood was obtained from the arm of a healthy human donor who was drug-free and aspirin-free for at least two weeks prior to blood collection. Blood was collected into 10 mL citrated vacutainer tubes. The blood was centrifuged for 15 minutes at 150 x g at room temperature, and platelet-rich plasma (PRP) was removed. The remaining blood was centrifuged for 15 minutes at 1500 x g at room temperature, and platelet-poor plasma (PPP) was removed. Samples were assayed on a aggregometer (PAP-4 Platelet Aggregation Profiler), using PPP as the blank (100% transmittance). 200 µL of PRP was added to each micro test tube, and transmittance was set to 0%. 20 µL of various agonists (ADP, collagen, arachidonate, epinephrine, thrombin) were added to each tube, and the aggregation profiles were plotted (% transmittance versus time). The results are expressed as % inhibition of agonist-induced platelet aggregation. For the IC50 evaluation, the test compounds were added at various concentrations prior to the activation of the platelets.
Ester prodrugs were preincubated (10^-3 M F.C.) with 100 IU/ml Porcine liver esterase (Sigma Chemical Co., St. Louis, MO, #E-3128) for 2 hours at 37 °C. Aliquots are then diluted in 0.1 M Tris, pH 7.4, to the desired concentrations. Aliquots of 20 µl of the esterase pretreated prodrugs are added to 200 µl of human platelet rich plasma. Samples were placed in platelet profiler (aggregometer) for 8 minutes at 37 °C, followed by the addition of 100 µM adenosine diphosphate (Sigma Chemical Co., St. Louis, MO, #A-6521), to induce platelet aggregation. Platelet aggregation was allowed to proceed for 5 minutes. Percent inhibition is calculated using percent aggregation in the presence of the test compound divided by percent aggregation of control, times 100. This value is subtracted from 100, yielding percent inhibition. Calculation of IC50 is performed on a Texas Instruments TI59 with an IC50 program.
Table 2 below sets forth the biological activity of representative compounds of the present invention. The indicated compounds were tested for their ability to inhibit platelet aggregation (using platelet rich plasma (PRP)). The IC50 value (the concentration of antagonist which inhibits platelet aggregation by 50% relative to a control lacking the antagonist) is shown. In Table 5 the IC50 values are expressed as: +++ = IC50 of <10 µM; ++ = ICso of 10-50 µM; + = IC50 of 50-100 µM (µM = micromolar).
By IC50 is commonly meant the midpoint of a concentration-inhibition curve. As to `CNC(=N)c1ccc(C2=NOC(CC(=O)NCCC(=O)O)C2)cc1` (racemic) [Example 21], the IC50 is under 10 µM.
Then `CCCCCNC(=N)c1ccc(C2=NOC(CC(=O)NCCC(=O)OCC)C2)cc1` (racemic) [Example 29], with under 10 µM; and `COC(=O)CCNC(=O)CC1CC(c2ccc(C(=N)NCc3ccccc3)cc2)=NO1` (stereo not drawn) [Example 32], with under 10 µM.
In the case of `CCCCNC(=N)c1ccc(C2=NOC(CC(=O)NCCC(=O)O)C2)cc1` (racemic) [Example 27], the IC50 was under 10 µM.
As for `N=C(N)c1ccc(C2=NOC(CC(=O)NCCC(=O)O)C2)cc1` (racemic) [Example 1, 5(R,S)-3-[3-(4-Amidinophenyl)isoxazolin-5-ylacetyl]aminopropanoic Acid], the IC50 was under 10 µM.
To `CCCNC(=N)c1ccc(C2=NOC(CC(=O)NCCC(=O)O)C2)cc1` (racemic) [Example 25] belongs under 10 µM; to `CCOC(=O)CCNC(=O)CC1CC(c2ccc(C(=N)NCCC(C)C)cc2)=NO1` (racemic) [Example 31], under 10 µM; to `CCCCNC(=N)c1ccc(C2=NOC(CC(=O)NCCC(=O)OCC)C2)cc1` (racemic) [Example 26, Ethyl 5(R,S)-3-[3-(4-N-n-Butylamidinophenyl)isoxazolin-5-ylacetyl]aminopropanoate], under 10 µM.
Then `CCCCCNC(=N)c1ccc(C2=NOC(CC(=O)NCCC(=O)O)C2)cc1` (stereo not drawn) [Example 28], with under 10 µM.
